# From patent publication US4454140A, “Nasal administration of dextromethorphan” (Hoffmann-La Roche Inc., priority 1982, dated 1984)
# Where “and” joins values, the source holds several entries; their conditions need not be identical. Identical values can stand only once. Like-named read-outs stand apart in the source and are kept apart here.
# Assay: bioavailability of dextromethorphan after nasal, oral and intravenous administration (plasma levels, spectrofluorophotometric)
# Assay type: in vivo, female beagle dogs
# Conditions: for AUC(0-t) at 2 h / concentration at 1 min / concentration at 0.05 h / concentration at 0.1 h / concentration at 0.2 h / concentration at 20 min / concentration at 35 min / concentration at 55 min / concentration at 80 min / concentration at 2 h / bioavailability at 2 h / concentration at 3 h: dog, plasma, 15 mg; for AUC(0-t) at 2 h / AUC 0-120 min., Individual AUC: 15 mg/dog; for concentration at 1 min / concentration at 0.05 h / concentration at 0.1 h / concentration at 0.2 h / concentration at 20 min / concentration at 35 min / concentration at 55 min / concentration at 80 min / concentration at 2 h / concentration at 3 h / Plasma Concentration: HBr salt 15 mg/dog; for bioavailability at 2 h: relative to intravenous, 0-120 min
# Description: The following study was undertaken to determine the bioavailability of dextromethorphan from nasal solution in comparison with the bioavailability of the drug when administered orally and intravenously.
# Three female beagle dogs weighing about 10 kg each were used for the study without fasting. For nasal administration, the dogs were anaesthetized with an intravenous injection of 30 mg/kg of sodium pentobarbital, and 0.5 ml of a warm saline solution containing dextromethorphan (30 mg/ml) was then administered to the nasal cavity through the nostrils with a syringe. For oral administration, the dogs were not anaesthetized and 10 ml of a saline solution containing dextromethorphan hydrobromide (1.5 mg/ml) was administered via a stomach tube. For intravenous administration, the dogs were anaesthetized as noted above, and one ml of a saline solution containing dextromethorphan hydrobromide (15 mg/ml) was injected through the cubital vein.
# After nasal, oral, and intravenous administration, blood was sampled from the cubital vein periodically. The blood sample, was centrifuged and 2.5 ml of plasma were analyzed. Plasma levels of dextromethorphan were determined spectrofluorophotometrically by a modification of the method of Ramachander, et al., J. Pharm. Sci., 66, 1047 (1977). Specifically, plasma was transferred into a glass tube, 0.5 ml of a saturated solution of sodium carbonate and 10 ml of ethyl acetate were added, and the contents shaken well. After centrifuging, an aliquot (8 ml) of the supernate was transferred into a glass tube containing 1.5 ml of 1.0N HCl, and was extracted into the acid layer after mixing well and centrifuging. The fluorescence of the acid layer was determined by a spectrofluorophotometer, Aminco-Bowman Ratio II, American Instrument Co. The excitation and emission wave lengths were 278 nm and 306 nm, respectively. Recovery of known amounts of dextromethorphan spiked with dog plasma was 50% of the added concentration. For calculating the drug plasma level, the above correction factor was taken into consideration.
# Table I reports the plasma concentration of dextromethorphan after nasal, intravenous, and oral administration of 15 mg/dog of dextromethorphan hydrobromide salt.
smiles,measurement,setting,value
"COc1ccc2c(c1)[C@]13CCCC[C@@H]1[C@H](C2)N(C)CC3 [dextromethorphan, d-3-methoxy-N-methylmorphinan]",AUC(0-t) at 2 h,"nasal, average of three dogs, read-out: AUC 0-120 min., Average ± S.E. (converted)",472 ng·h/mL
same,concentration at 1 min,"nasal, dog #1, 1 min",72.1 ng/mL
same,concentration at 0.05 h,"nasal, dog #1, 3 min",323 ng/mL
same,concentration at 0.1 h,"nasal, dog #1, 6 min",618 ng/mL
same,concentration at 0.2 h,"nasal, dog #1, 12 min",684 ng/mL
same,concentration at 20 min,"nasal, dog #1, 20 min",503 ng/mL
same,concentration at 35 min,"nasal, dog #1, 35 min",276 ng/mL
same,concentration at 55 min,"nasal, dog #1, 55 min",240 ng/mL
same,concentration at 80 min,"nasal, dog #1, 80 min",201 ng/mL
same,concentration at 2 h,"nasal, dog #1, 120 min",154 ng/mL
same,concentration at 1 min,"nasal, dog #2, 1 min",89.1 ng/mL
same,concentration at 0.05 h,"nasal, dog #2, 3 min",793 ng/mL
same,concentration at 0.1 h,"nasal, dog #2, 6 min",733 ng/mL
same,concentration at 0.2 h,"nasal, dog #2, 12 min",888 ng/mL
same,concentration at 20 min,"nasal, dog #2, 20 min",260 ng/mL
same,concentration at 35 min,"nasal, dog #2, 35 min",201 ng/mL
same,concentration at 55 min,"nasal, dog #2, 55 min",170 ng/mL
same,concentration at 80 min,"nasal, dog #2, 80 min",183 ng/mL
same,concentration at 2 h,"nasal, dog #2, 120 min",141 ng/mL
same,concentration at 1 min,"nasal, dog #3, 1 min",84.2 ng/mL
same,concentration at 0.05 h,"nasal, dog #3, 3 min",428 ng/mL
same,concentration at 0.1 h,"nasal, dog #3, 6 min",493 ng/mL
same,concentration at 0.2 h,"nasal, dog #3, 12 min",385 ng/mL
same,concentration at 20 min,"nasal, dog #3, 20 min",263 ng/mL
same,concentration at 35 min,"nasal, dog #3, 35 min",165 ng/mL
same,concentration at 55 min,"nasal, dog #3, 55 min",129 ng/mL
same,concentration at 80 min,"nasal, dog #3, 80 min",93.3 ng/mL
same,concentration at 2 h,"nasal, dog #3, 120 min",108 ng/mL
same,AUC(0-t) at 2 h,"nasal, individual dogs, read-out: AUC 0-120 min., Individual AUC (converted)",568 ng·h/mL
same,bioavailability at 2 h,nasal,110%
same,bioavailability at 2 h,oral,30.2%
same,concentration at 1 min,"iv, dog #1, 1 min",1530 ng/mL
same,concentration at 0.05 h,"iv, dog #1, 3 min",927 ng/mL
same,concentration at 0.1 h,"iv, dog #1, 6 min",708 ng/mL
same,concentration at 0.2 h,"iv, dog #1, 12 min",482 ng/mL
same,concentration at 20 min,"iv, dog #1, 20 min",331 ng/mL
same,concentration at 35 min,"iv, dog #1, 35 min",296 ng/mL
same,concentration at 55 min,"iv, dog #1, 55 min",171 ng/mL
same,concentration at 80 min,"iv, dog #1, 80 min",134 ng/mL
same,concentration at 2 h,"iv, dog #1, 120 min",144 ng/mL
same,concentration at 1 min,"iv, dog #2, 1 min",1590 ng/mL
same,concentration at 0.05 h,"iv, dog #2, 3 min",952 ng/mL
same,concentration at 0.1 h,"iv, dog #2, 6 min",532 ng/mL
same,concentration at 0.2 h,"iv, dog #2, 12 min",349 ng/mL
same,concentration at 20 min,"iv, dog #2, 20 min",229 ng/mL
same,concentration at 35 min,"iv, dog #2, 35 min",166 ng/mL
same,concentration at 55 min,"iv, dog #2, 55 min",146 ng/mL
same,concentration at 80 min,"iv, dog #2, 80 min",165 ng/mL
same,concentration at 2 h,"iv, dog #2, 120 min",141 ng/mL
same,concentration at 1 min,"iv, dog #3, 1 min",1490 ng/mL
same,concentration at 0.05 h,"iv, dog #3, 3 min",907 ng/mL
same,concentration at 0.1 h,"iv, dog #3, 6 min",430 ng/mL
same,concentration at 0.2 h,"iv, dog #3, 12 min",322 ng/mL
same,concentration at 20 min,"iv, dog #3, 20 min",187 ng/mL
same,concentration at 35 min,"iv, dog #3, 35 min",102 ng/mL
same,concentration at 55 min,"iv, dog #3, 55 min",81.4 ng/mL
same,concentration at 80 min,"iv, dog #3, 80 min",46.2 ng/mL
same,concentration at 2 h,"iv, dog #3, 120 min",37.3 ng/mL
same,AUC(0-t) at 2 h,"iv, intravenous, average of three dogs, read-out: AUC 0-120 min., Average ± S.E. (converted)",431 ng·h/mL
same,AUC(0-t) at 2 h,"iv, intravenous, individual dogs, read-out: AUC 0-120 min., Individual AUC (converted)",537 ng·h/mL
same,concentration at 20 min,"po, dog #1, 20 min",7.5 ng/mL
same,concentration at 35 min,"po, dog #1, 35 min",43.4 ng/mL
same,concentration at 55 min,"po, dog #1, 55 min",73.6 ng/mL
same,concentration at 80 min,"po, dog #1, 80 min",80.1 ng/mL
same,concentration at 2 h,"po, dog #1, 120 min",74.7 ng/mL
same,concentration at 3 h,"po, dog #1, 180 min",63.3 ng/mL
same,concentration at 0.1 h,"po, dog #2, 6 min",18.5 ng/mL
same,concentration at 0.2 h,"po, dog #2, 12 min",40 ng/mL
same,concentration at 20 min,"po, dog #2, 20 min",62.9 ng/mL
same,concentration at 35 min,"po, dog #2, 35 min",94.4 ng/mL
same,concentration at 55 min,"po, dog #2, 55 min",92.3 ng/mL
same,concentration at 80 min,"po, dog #2, 80 min",86.8 ng/mL
same,concentration at 2 h,"po, dog #2, 120 min",86 ng/mL
same,concentration at 3 h,"po, dog #2, 180 min",85.7 ng/mL
same,concentration at 20 min,"po, dog #3, 20 min",18.4 ng/mL
same,concentration at 35 min,"po, dog #3, 35 min",47.6 ng/mL
same,concentration at 55 min,"po, dog #3, 55 min",65 ng/mL
same,concentration at 80 min,"po, dog #3, 80 min",95.5 ng/mL
same,concentration at 2 h,"po, dog #3, 120 min",91.5 ng/mL
same,concentration at 3 h,"po, dog #3, 180 min",53.4 ng/mL
same,AUC(0-t) at 2 h,"po, oral, average of three dogs, read-out: AUC 0-120 min., Average ± S.E. (converted)",130 ng·h/mL
same,AUC(0-t) at 2 h,"po, oral, individual dogs, read-out: AUC 0-120 min., Individual AUC (converted)",110 ng·h/mL
same,"AUC 0-120 min., Individual AUC","intravenous, individual dogs",27597.7 ng eq. ml-^1 min and 17668.5 ng eq. ml-^1 min
same,absorption after nasal administration vs standard oral route,nasal vs oral,more rapid and more complete absorption
same,blood level after nasal administration,"nasal, 15 mg dose, about 5 minutes to about 2 hours, vs injected dose (FIG. 1)",blood levels comparable to an injected dose
same,"AUC 0-120 min., Individual AUC","nasal, individual dogs",30735.4 ng eq. ml-^1 min and 20139.0 ng eq. ml-^1 min
same,Plasma Concentration,"oral, dog #1, 1 min",0 ng eq./ml
same,Plasma Concentration,"oral, dog #1, 3 min",0 ng eq./ml
same,Plasma Concentration,"oral, dog #1, 6 min",0 ng eq./ml
same,Plasma Concentration,"oral, dog #1, 12 min",0 ng eq./ml
same,Plasma Concentration,"oral, dog #2, 1 min",0 ng eq./ml
same,Plasma Concentration,"oral, dog #2, 3 min",0 ng eq./ml
same,Plasma Concentration,"oral, dog #3, 1 min",0 ng eq./ml
same,Plasma Concentration,"oral, dog #3, 3 min",0 ng eq./ml
same,Plasma Concentration,"oral, dog #3, 6 min",0 ng eq./ml
same,Plasma Concentration,"oral, dog #3, 12 min",0 ng eq./ml
same,"AUC 0-120 min., Individual AUC","oral, individual dogs",9356.5 ng eq. ml-^1 min and 7441.6 ng eq. ml-^1 min
same,blood level after oral administration,"oral, same dosage level (15 mg), FIG. 1",considerably lower blood levels
